Test results published in US10023565B2, “N,N′ substituted piperidinamine compounds, and preparation method and usage thereof” (Institute of Pharmacology and Toxicology Academy of …, priority 2013, dated 2018).

Key:
Test in all cases: Antitumor bioactivity evaluation, breast cancer cells (ATPlite)
SK-BR3 = assay type: cell-based; conditions: Homo sapiens, SK-BR-3; test sample 5 μM, 72 hours; read-out: Inhibitory Rate % SK-BR3
Method: (§1) Antitumor bioactivity evaluation of the compounds of Examples according to the method described below
(§2) Cells plating: a 100 mm culture dish with overgrown adherent cells was digested with 1 ml 0.25% trypsin (GIBCO) at 37° C. for 5 min, and the reaction was terminated with 2 ml culture medium (containing 10% FBS, GIBCO). The cells were scattered and collected, after counting, diluted to 1×10^5 cells/ml, and seeded into a 96-well plate at 50 μl/well, 5000 cells/well, excluding the peripheral circle of wells in which no cell was added, but PBS was added, 60 wells in total, and then incubated at 37° C. for 24 hours for adhering.
(§3) Addition of the compound and lapatinib: the test sample was diluted to a final concentration of 5 μM, and the culture medium with the corresponding compound solvent concentration was filled in the control well, the compound solvent concentration was kept consistent in each well, 5 parellel wells were set for each concentration, 25 μl each well, 25 μl culture medium (in combined group, 25 μl lapatinib was added till a final concentration of 1 μM) supplemented, followed by incubation at 37° C. for 72 hours.
(§4) Test after incubation at 37° C. for 72 hours: 50 μL of ATPlite kit substrate solution was added in each well, and vibrated for 3 min, followed by placing aside in darkness for 10 min, and then supernatant 100 μl/well was taken and placed on aluminescence test plate; the luminescence test plate that has been fully incubated was placed in a luminescence test instrument, to read luminescence value.
(§5) 1. Cell survival rate (%)=Experimental group RLU/control group RLU×100%. The experimental data were subjected to data analysis and processing by utilizing GraphPad software.

MDA-MB-361 = assay type: cell-based; conditions: Homo sapiens, test sample 5 μM, 72 hours, read-out: Inhibitory Rate % MDA-MB-361
Method: as §1, §2, §3, §4, §5

BT474 = assay type: cell-based; conditions: Homo sapiens, BT-474; test sample 5 μM, 72 hours; read-out: Inhibitory Rate % BT474
Method: as §1, §2, §3, §4, §5

SK/Lap^R1.0 = assay type: cell-based; conditions: Homo sapiens; test sample 5 μM, 72 hours; read-out: Inhibitory Rate % SKLap^R1.0
Method: as §1, §2, §3, §4, §5

MDA-MB-453 = assay type: cell-based; conditions: Homo sapiens, test sample 5 μM, 72 hours, read-out: Inhibitory Rate % MDA-MB-453
Method: as §1, §2, §3, §4, §5

BT/Lap^R1.0 = assay type: cell-based, human; conditions: Homo sapiens; test sample 5 μM, 72 hours; read-out: Inhibitory Rate % BT/Lap^R1.0
Method: as §1, §2, §3, §4, §5

| SMILES | inhibition at 5 µM (SK-BR3) [%] | inhibition at 5 µM (MDA-MB-361) [%] | inhibition at 5 µM (BT474) [%] | inhibition at 5 µM (SK/Lap^R1.0) [%] | inhibition at 5 µM (MDA-MB-453) [%] | inhibition at 5 µM (BT/Lap^R1.0) [%] |
| --- | --- | --- | --- | --- | --- | --- |
| CN(Cc1c(Cl)cccc1Cl)C1CCN(Cc2cnc(Cl)s2)CC1 [Example 24, N-methyl-N-(2,6-dichlorobenzyl)-N-{[1-(2-chlorothiazol-5-yl)methyl]piperidin-4-yl}amine] | 19 | 10.2 | 11.1 | 8.5 | 21.1 | 7.1 |
| CSc1ncc(CN2CCC(N(C)Cc3ccccc3C)CC2)s1 [Example 25, N-methyl-N-(2-methylbenzyl)-N-{[1-(2-methylthiothiazol-5-yl)methyl]piperidin-4-yl}amine] | 21.9 | 31.7 | 15.5 | 6.9 | 35.1 | 1.4 |
| CSc1ncc(CN2CCC(N(C)Cc3ccc(C)cc3)CC2)s1 [Example 26, N-methyl-N-(4-methylbenzyl)-N-{[1-(2-methylthiothiazol-5-yl)methyl]piperidin-4-yl}amine] | 49.6 | 38.3 | 68.3 | 12.1 | 67.1 | 66.7 |
| CSc1ncc(CN2CCC(N(C)Cc3cccc(F)c3)CC2)s1 [Example 27, N-methyl-N-(3-fluorobenzyl)-N-{[1-(2-methylthiothiazol-5-yl)methyl]piperidin-4-yl}amine] | 19.5 | 31.7 | 26.3 | 2.1 | 44.2 | 19.8 |
| CSc1ncc(CN2CCC(N(C)Cc3cccc(Cl)c3)CC2)s1 [Example 28, N-methyl-N-(3-chlorobenzyl)-N-{1-[(2-methylthiothiazol-5-yl)methyl]piperidin-4-yl}amine] | 26.7 | 31.1 | 44.9 | 7.3 | 62.3 | 36.1 |
| CSc1ncc(CN2CCC(N(C)Cc3ccc(F)cc3)CC2)s1 [Example 29, N-methyl-N-(4-fluorobenzyl)-N-{1-[(2-methylthiothiazol-5-yl)methyl]piperidin-4-yl}amine] | 40.9 | 32.8 | 54.4 | 11.7 | 67.4 | 50.5 |
| CSc1ncc(CN2CCC(N(C)Cc3ccc(Cl)c(Cl)c3)CC2)s1 [Example 30, N-methyl-N-(3,4-dichlorobenzyl)-N-{1-[(2-methylthiothiazol-5-yl)methyl]piperidin-4-yl}amine] | 42.4 | 42.1 | 62.6 | 10.1 | 69.9 | 67.1 |
| CSc1ncc(CN2CCC(N(C)Cc3c(F)cccc3Cl)CC2)s1 [Example 31, N-methyl-N-(2-fluoro-6-chlorobenzyl)-N-{1-[(2-methylthiothiazol-5-yl)methyl]piperidin-4-yl}amine] | 9.2 | 47.2 | 49.5 | 4.5 | 65.3 | 59.9 |
| CSc1ncc(CN2CCC(N(C)Cc3c(Cl)cccc3Cl)CC2)s1 [Example 32, N-methyl-N-(2,6-dichlorobenzyl)-N-{1-[(2-methylthiothiazol-5-yl)methyl]piperidin-4-yl}amine] | 24.3 | 45.2 | 54.9 | 26.8 | 63.7 | 54.9 |
| CSc1ncc(CN2CCC(N(C)Cc3ccc(Cl)cc3Cl)CC2)s1 [Example 33, N-methyl-N-(2,4-dichlorobenzyl)-N-{1-[(2-methylthiothiazol-5-yl)methyl]piperidin-4-yl}amine] | 37.8 | 36.3 | 70 | 40.4 | 72.4 | 66.3 |
| CSc1ncc(CN2CCC(N(C)Cc3cc(Cl)ccc3Cl)CC2)s1 [Example 34, N-methyl-N-(2,5-dichlorobenzyl)-N-{1-[(2-methylthiothiazol-5-yl)methyl]piperidin-4-yl}amine] | 23.3 | 25.4 | 42.3 | 11.4 | 59.4 | 34.4 |
| CSc1nccc(N2CCC(N(C)Cc3ccc(Cl)c(Cl)c3)CC2)n1 [Example 38, N-methyl-N-(3,4-dichlorobenzyl)-N-[1-(2-methylthiopyrimidin-4-yl)piperidin-4-yl]amine] | 30.1 | 29.5 | 39.5 | 12.9 | 60 | 29.9 |
| CSc1nccc(N2CCC(N(C)Cc3cccc(Cl)c3)CC2)n1 [Example 39, N-methyl-N-(3-chlorobenzyl)-N-[1-(2-methylthiopyrimidin-4-yl)piperidin-4-yl]amine] | 26.4 | 39.1 | 35.1 | 24.4 | 65.7 | 25.1 |
| CSc1nccc(N2CCC(N(C)Cc3ccccc3C#N)CC2)n1 [Example 41, N-methyl-N-(2-cyanobenzyl)-N-[1-(2-methylthiopyrimidin-4-yl)piperidin-4-yl]amine] | 38.9 | 55.7 | 69.2 | 42 | 66.6 | 65.8 |
| CSc1nccc(N2CCC(N(C)Cc3ccc(C)cc3)CC2)n1 [Example 42, N-methyl-N-(4-methylbenzyl)-N-[1-(2-methylthiopyrimidin-4-yl)piperidin-4-yl]amine] | 41.4 | 45.1 | 36.7 | 35.8 | 60.8 | 28.6 |
| COc1nccc(N2CCC(N(C)Cc3ccccc3Cl)CC2)n1 [Example 43, N-methyl-N-(2-chlorobenzyl)-N-[1-(2-methoxypyrimidin-4-yl)piperidin-4-yl]amine] | 19.3 | 45.7 | 61 | 29.4 | 69.3 | 56.9 |
| CSc1nccc(N2CCC(N(C)Cc3cc(Cl)ccc3Cl)CC2)n1 [Example 44, N-methyl-N-(2,5-dichlorobenzyl)-N-[1-(2-methylthiopyrimidin-4-yl)piperidin-4-yl]amine] | 32.6 | 50.4 | 67.1 | 35.2 | 66.2 | 63.9 |
| CSc1nccc(N2CCC(N(C)Cc3cccc(F)c3)CC2)n1 [Example 45, N-methyl-N-(3-fluorobenzyl)-N-[1-(2-methylthiopyrimidin-4-yl)piperidin-4-yl]amine] | 22.2 | 36.2 | 21.3 | 34.2 | 45.3 | 17.5 |
| CNC1CCN(c2nccc(OC)n2)CC1 [Example 46, N-methyl-N-[1-(4-methoxypyrimidin-2-yl)piperidin-4-yl]amine] | 85.9 | 53.2 | 73.1 | 71 | 79.2 | 70 |
| COc1nccc(N2CCC(N(C)Cc3ccc(C#N)cc3)CC2)n1 [Example 48, N-methyl-N-(4-cyanobenzyl)-N-[1-(2-methoxypyrimidin-4-yl)piperidin-4-yl]amine] | 86.5 | 53.3 | 71.6 | 74.3 | 79.5 | 72.7 |
| COc1nccc(N2CCC(N(C)Cc3ccccc3C#N)CC2)n1 [Example 50, N-methyl-N-(2-cyanobenzyl)-N-[1-(2-methoxypyrimidin-4-yl)piperidin-4-yl]amine] | 24.7 | 22 | 27.5 | 11.7 | 50.6 | 22.7 |
| COc1nccc(N2CCC(N(C)Cc3ccc(C)cc3)CC2)n1 [Example 51, N-methyl-N-(4-methylbenzyl)-N-[1-(2-methoxypyrimidin-4-yl)piperidin-4-yl]amine] | 34.5 | 45.7 | 65.6 | 22.4 | 70.5 | 65.2 |
